Test results reported in paper PMC4890880 (ACS infectious diseases, 2016).
Like-named read-outs stand apart in the source and are kept apart here.

Assays:
[1] = system: HepG2-A16-CD81EGFP cells; assay: cells; conditions: Homo sapiens, HepG2, read-out: % inhibition
[2] = system: HepG2-A16-CD81EGFP cells; assay: cells; conditions: Homo sapiens, HepG2, read-out: % inhibition; remark: listed apart in the source
[3] = system: Plasmodium berghei (Pb-Luc) exoerythrocytic-stage parasites; assay: microbe, parasite or virus in culture; conditions: for inhibition at 10 µM: read-out: PbLuc max inhibition (%) @ 10 uM
[4] = system: HepG2-A16-CD81EGFP cells; assay: cells; conditions: Homo sapiens; for IC50: HepG2, read-out: Tox IC50; for inhibition at 10 µM: HepG2, read-out: Tox max inhibition (%) @ 10 uM; for inhibition at 50 µM: HepG2, read-out: Tox max inhibition (%) @ 50 uM
[5] = biological target: QuantiLum Recombinant Luciferase (Photinus pyralis, UniProt P08659); assay: Bioluminescence quantification of compound luciferase inhibition; conditions: for Emax: read-out: LucInhib max inhibition
Chain of QuantiLum Recombinant Luciferase (P08659 whole entry): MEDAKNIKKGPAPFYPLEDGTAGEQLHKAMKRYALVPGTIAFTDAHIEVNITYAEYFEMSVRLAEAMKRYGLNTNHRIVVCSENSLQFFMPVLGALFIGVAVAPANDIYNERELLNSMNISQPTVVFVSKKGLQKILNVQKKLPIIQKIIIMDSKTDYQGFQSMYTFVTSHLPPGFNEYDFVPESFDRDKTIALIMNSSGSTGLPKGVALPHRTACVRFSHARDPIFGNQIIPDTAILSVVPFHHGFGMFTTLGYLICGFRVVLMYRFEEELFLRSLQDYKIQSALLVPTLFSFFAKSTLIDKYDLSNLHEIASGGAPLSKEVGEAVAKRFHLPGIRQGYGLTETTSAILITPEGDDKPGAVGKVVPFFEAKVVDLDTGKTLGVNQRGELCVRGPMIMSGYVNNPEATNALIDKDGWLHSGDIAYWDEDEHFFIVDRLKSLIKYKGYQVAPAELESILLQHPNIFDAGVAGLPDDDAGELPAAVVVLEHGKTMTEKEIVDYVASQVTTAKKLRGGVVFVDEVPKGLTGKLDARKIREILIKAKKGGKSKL

[6] = read-out: Inhibition% @ 50 uM rep1
[7] = read-out: Inhibition% @ 50 uM rep2
[8] = HepG2, read-out: HepG2 Tox% @ 50 uM rep1
[9] = HepG2, read-out: HepG2 Tox% @ 50 uM rep2
[10] = read-out: PbLuc IC50, dose response, 1/3 dilutions, max conc. 10 or 50 uM, unit inferred
[11] = read-out: PbLuc IC50, dose response, unit inferred
[12] = read-out: PbLuc max inhibition (%) @ 50 uM

Row | SMILES | inhibition at 50 µM [1] [%] | inhibition at 50 µM [2] [%] | inhibition at 50 µM [3, 6] [%] | inhibition at 50 µM [3, 7] [%] | cytotoxicity at 50 µM [4, 8] [%] | cytotoxicity at 50 µM [4, 9] [%] | IC50 [4] [µM] | inhibition at 10 µM [4] [%] | IC50 [3, 10] [µM] | inhibition at 10 µM [3] [%] | IC50 [5] [µM] | Emax [5] [%] | inhibition at 50 µM [4] [%] | IC50 [3, 11] [µM] | inhibition at 50 µM [3, 12] [%]
1 | CCOc1ccc(-c2nonc2NC(=O)c2cccc(C)c2)cc1OCC [MMV665805] | 0.576 | 6.54 | 44 | 72 | – | – | – | – | – | – | – | – | – | – | –
2 | O=C(NC1CCN(Cc2ccccc2)CC1)c1cc(-c2ccncc2)nc2ccc(Cl)cc12 [MMV020275] | 89.1 | 90.6 | 52 | 39 | – | – | – | – | – | – | – | – | – | – | –
3 | O=c1nc(C=Cc2ccc(Cl)cc2)oc2ccccc12 [MMV007977] | 78.9 | 85.9 | 104 | 106 | – | – | – | – | – | – | – | – | – | – | –
4 | COc1ccccc1CNC(=O)C1c2ccccc2C(=O)N(CC(C)C)C1c1cccs1 (stereo not drawn) [MMV000648] | 83.2 | 91.6 | 103 | 105 | – | – | – | – | – | – | – | – | – | – | –
5 | CCC1(C)CC(CCNCc2ccccc2O)(c2ccc(C)cc2)CCO1 (stereo not drawn) [MMV019406] | 96.7 | 98.3 | 102 | 102 | – | – | – | – | – | – | – | – | – | – | –
6 | Fc1ccc2[nH]c3c(NCCCN4CCOCC4)ncnc3c2c1 [MMV019871] | 58.8 | 74.2 | 103 | 103 | – | – | – | – | – | – | – | – | – | – | –
7 | CCCCCCOC(=O)C1=C(C)NC(=O)NC1c1ccccc1F (stereo not drawn) [MMV007686] | 19.1 | 4.22 | 69 | 63 | – | – | – | – | – | – | – | – | – | – | –
8 | Cc1cc(Nc2ccc3ccccc3c2)n2ncnc2n1 [MMV011099] | 88.4 | 86.3 | 101 | 102 | – | – | – | – | – | – | – | – | – | – | –
9 | CC1CCCCN1CCCNC(=O)c1ccc2c(c1)sc1nc(-c3ccc(F)cc3)cn12 (stereo not drawn) [MMV000634] | 97 | 98.9 | 103 | 103 | – | – | – | – | – | – | – | – | – | – | –
10 | CC1CCN(Cc2ccc(NC(=O)c3cc4ccc5cccnc5c4[nH]3)cc2)CC1 [MMV020549] | 95.4 | 96.7 | 104 | 106 | – | – | – | – | – | – | – | – | – | – | –
11 | O=C(Nc1ccc(N2CCN(Cc3ccccc3)CC2)cc1)c1cccs1 [MMV019670] | – | – | 102 | 102 | -7.52 | -9 | > 10 | 32 | 0.0944 | 110 | > 20 | 14 | – | – | –
12 | COc1ccc(C)c2sc(N(Cc3cccnc3)C(=O)c3ccc(C#N)cc3)nc12 [MMV001241] | – | – | 100 | 102 | 18 | – | > 50 | – | – | – | > 50 | 7 | 22 | 21.5 | 101
13 | COc1ccc(C(C)=O)cc1N1C(=O)C2C(C1=O)C1(c3ccccc3)C(=O)C2(c2ccccc2)C(c2ccc(C)cc2)=C1c1ccc(C)cc1 (stereo not drawn) [MMV007695] | – | – | 101 | 104 | -1.58 | 13 | > 50 | – | – | – | > 50 | 35 | 5.54 | 24.8 | 60
14 | CCOC(=O)c1cnc2c(CC)cccc2c1O [MMV498479] | – | – | 103 | 103 | -10 | – | > 50 | – | 1.67 | – | > 50 | 19 | 1 | – | 106
15 | COc1ccc(N2CCN(C(CNC(=O)C3CCCCC3)c3ccc4c(c3)OCO4)CC2)cc1 (stereo not drawn) [MMV019662] | – | – | 89 | 94 | 18 | 28 | > 50 | – | – | – | > 50 | 38 | 19 | > 50 | 49
16 | CCN(CC)c1ccc(NC(=O)c2cccs2)cc1 [MMV009060] | – | – | 101 | 102 | 7 | 16 | > 50 | – | 1.76 | – | 33.1 | 80 | 6 | – | 104
17 | COc1ccccc1N1C(=N)SC(=Cc2ccc(OCc3ccccc3F)cc2)C1=O [MMV007199] | – | – | 102 | 101 | 14 | – | > 50 | – | 1.82 | – | > 50 | 25 | 24 | – | 106
18 | CCOC(=O)c1cn(CC)c2cc(N(C)CCc3ccc(OC)c(OC)c3)c(F)cc2c1=O [MMV665977] | – | – | 103 | 106 | 6 | 3 | > 50 | – | 1.61 | – | > 50 | 40 | 3.53 | – | 106
19 | CN1CCN(c2nc(Nc3ccc(O)cc3)nc3ccccc23)CC1 [MMV000986] | – | – | 86 | 90 | 25 | – | > 50 | – | 20.4 | – | 21.9 | 69 | 7 | – | 94
20 | COc1cccc(C(=O)Nc2ccc(-c3nc4ccccc4[nH]3)cc2)c1 [MMV019762] | – | – | -94 | -91 | -16 | – | > 10 | 9 | – | 31 | > 20 | -3 | – | > 10 | –
21 | FC(F)(F)c1ccc(Nc2nnnc3ccccc23)cc1 [MMV665935] | – | – | 102 | 101 | 19 | -5 | > 50 | – | 0.738 | – | > 50 | 25 | 7 | – | 105
22 | C=CCc1c(C)nc2ccccc2c1O [MMV006913] | – | – | 100 | 97 | -8 | -5 | > 10 | 15 | 0.292 | 108 | > 20 | 38 | – | – | –
23 | CC(=O)Nc1nnc(SCc2c(C)cc(C(C)(C)C)cc2C)s1 [MMV020700] | – | – | 103 | 105 | 0.191 | 8 | > 50 | – | 2.29 | – | > 50 | 34 | 10 | – | 103
24 | CCOc1cc(Cl)c(C(C)NC(=O)c2ccccc2)cc1OCC (stereo not drawn) [MMV665800] | – | – | 97 | 93 | 49 | 21 | > 50 | – | – | – | > 50 | 41 | 22 | > 50 | 89
25 | CC(C)(C)c1ccc(C2CC3=Nc4ccccc4N(C(=O)c4ccccc4Cl)C(c4ccc(F)cc4)C3=C(O)C2)cc1 (stereo not drawn) [MMV011436] | – | – | 93 | 94 | 1.44 | – | > 50 | – | 2.39 | – | > 50 | 20 | 19 | – | 99
26 | O=C(c1ccccc1F)N(Cc1ccc(Cl)cc1)c1ccccn1 [MMV665899] | – | – | 100 | 98 | 20 | 28 | > 50 | – | 9.54 | – | > 50 | 40 | 6 | – | 94
27 | O=C(NC1CCN(Cc2ccccc2)CC1)c1cc(-c2cccnc2)nc2ccc(Cl)cc12 [MMV020490] | – | – | 95 | 91 | 0.383 | -0.245 | > 50 | – | – | – | > 50 | 23 | 12 | > 50 | 71
28 | CCc1ccc(Nc2cc(C)nc3nc(C)nn23)cc1 [MMV007374] | – | – | 92 | 91 | 11 | 15 | > 50 | – | 4.8 | – | > 50 | 30 | 9 | – | 101
29 | CCCc1c(C)nc2ccccc2c1O [MMV666081] | – | – | 101 | 103 | 0.331 | -5.31 | > 10 | 2.31 | 0.195 | 100 | > 20 | 18 | – | – | –
30 | Cc1ccc(-c2cc3c(SCC(=O)Nc4cc(C(F)(F)F)ccc4Cl)nccn3n2)cc1 [MMV396680] | – | – | 92 | 85 | -4 | 2.13 | > 50 | – | 8.63 | – | > 50 | 21 | 11 | – | 95
